Starred links: 1 amine or outer side, 2 acyl side, 3 side chain; linkers in the order of their positions; H or OH if unused. Positions of bridges follow the written chain, without caps; N, C: chain ends. Non-standard residues stand in square brackets, D forms with d. Residues, ends and D or L forms follow the SMILES beside them. Phe(3-OCH2COOH) = N[C@@H](Cc1cccc(OCC(=O)O)c1)C(=O)O; Phe(4-COOH) = N[C@@H](Cc1ccc(C(=O)O)cc1)C(=O)O; Gly(N(CH2)3COOH) = O=C(O)CCCNCC(=O)O; X1 = CCCCCCC[C@H](N[*:1])C(=O)[*:2]; NMeF = CN[C@@H](Cc1ccccc1)C(=O)O; NMeA = CN[C@@H](C)C(=O)O
How the values were obtained:
GDF-11 = biological target: T1, GDF-11 (Homo sapiens, UniProt O95390); test: Reporter gene assay for myostatin signaling in HepG2 cell line, Evaluation Procedure (1), GDF-11 inhibition; type: cell-based; conditions: Method A: GDF-11 10 ng/mL; read-out: IC50 (Luciferase) GDF-11 HepG2
T1 construct: purchased R&D systems 1958-GD-G8/CF
T1 sequence (O95390 299-407): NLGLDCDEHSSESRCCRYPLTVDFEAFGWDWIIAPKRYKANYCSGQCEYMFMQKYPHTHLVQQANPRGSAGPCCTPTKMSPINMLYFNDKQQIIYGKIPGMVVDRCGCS
Summary of the method: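 HepG2 cells transfected with pGL3(CAGA)12-luciferase reporter, serum-starved in 0.1% BSA medium, then stimulated with myostatin or GDF-11 plus 4-fold peptide dilutions (0.006–100 nmol/L for myostatin, 0.12–2000 nmol/L for GDF-11) for 20–24 h at 37 °C. Luminescence read with One-Glo; IC50 calculated.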

B10-mdx mice = test: Orally administered peptide, improvement of muscle strength in B10-mdx mice; type: in vivo, C57BL/10-mdx/Jcl mice; conditions: oral administration 65 and 200 mg/kg once a week, 4 times, after fasting; Fig. 6
Description: In this Example, the effect of the peptide Myostatin_99_v145 (SEQ ID NO: 30) was evaluated on improvement of muscle strength when the peptide was orally administered to DMD model mice.
B10-mdx mice were used as the DMD model mice. To five-week-old female C57BL/10-mdx/Jcl mice (CLEA Japan, Inc.; NPL 17), the peptide or solvent control (Vehicle) PBS was subcutaneously administered once a week for 4 weeks. In addition, the peptide or the solvent control, namely 30% Labrasol/PBS, was administered orally to the DMD model mice once a week after fasting in a total of 4 times.
Using a smart-type grip strength meter for rats and mice (MK-380V; Muromachi Kikai Co., Ltd.), forelimb and hindlimb grip strength measurements were performed on the day of completion of the acclimation period (grouping day; 5-week-old), and on Day 7 (6-week-old), Day 14 (7-week-old), Day 20 (8-week-old), and Day 27 (9-week-old). The measurements were conducted with individual identification numbers blinded so that the examiner was unaware of the test conditions of the mice. The grip strength was measured seven times consecutively, and the average of five points, excluding the two points: the highest and lowest values, was used as individual data.

IC50 (GDF-11): 414 nM
Structure (SMILES): CCCCCCC[C@@H]1NC(=O)[C@H](Cc2ccccc2)N(C)C(=O)[C@H](CCCNC(=N)N)NC(=O)[C@H](Cc2ccc(C(=O)O)cc2)NC(=O)[C@H](Cc2cccc(OCC(=O)O)c2)NC(=O)[C@H](C)N(C)C(=O)[C@H]([C@@H](C)CC)NC(=O)[C@H](Cc2ccccc2)N(C)C(=O)[C@H](Cc2ccc(O)cc2)NC(=O)[C@H](Cc2c[nH]c3ccccc23)NC(=O)[C@H](C)NC(=O)CN(CCCC(=O)O)C(=O)CSC[C@H](C(=O)O)NC(=O)[C@H](Cc2ccccc2)N(C)C(=O)[C@H](C)N(C)C1=O [Myostatin_99_v145] ({CH2CO}-[Gly(N(CH2)3COOH)]AWY[NMeF]I[NMeA][Phe(3-OCH2COOH)][Phe(4-COOH)]R[NMeF][X1][NMeA][NMeF][dC]-OH; thioether N-15)
time-course change in grip strength (B10-mdx mice): continuous increase in grip strength was observed in a dose-dependent manner

— EP4786487A1, “PEPTIDE” (Peptidream Inc, priority 2023, dated 2025)
